Laboratory results taken from patent publication US20070026478A1, “Hemiasterlin affinity probes and their uses” (WYETH, priority 2002, published 2007).
pIC50, pKd: −log10 of the molar value.

Tests used:
α-tubulin = target: T1, α-tubulin (Bos taurus, UniProt P81947); test: Subtilisin digestion of tubulin before or after labeling with Probe 1; assay type: biochemical, bovine
T1 construct: MAP-rich bovine brain tubulin (99% purity), Hela cell tubulin (90% purity); purchased Cytoskeleton (Denver, Colo.); host or cells: bovine brain
Method: FIGS. 6A-6C provide data for the digestion of tubulin by subtilisin before or after photoaffinity labeling with Probe 1. FIG. 6A diagrams the predicted subtilisin cleavage site and cleavage products for α-tubulin. FIG. 6B provides Coomassie staining (top) and fluorographic (bottom) images of fragments photolabeled with Probe 1 and exposed to subtilisin as follows: Tubulin (5 μg) was incubed without (Lanes 1 and 4) or with 0.2 μg subtilisin for 60 minutes at 30° C. and then photolabeled with 0.25 μM [^3H]-Probe 1 (Lane 2) according to conditions specified in Section 6.1.11. Alternatively, photolabeling was done before subtilisin digestions (Lane 3). In both cases samples were then separated by SDS-PAGE. […] Again, samples were separated by SDS-PAGE.
Before or after incubating with 0.25 μM (0.36 μCi) [^3H]-Probe 1 for 30 minutes at room temperature and irradiating as described in Section 7.1.5, tubulin (5 μg) was digested under native conditions with subtilisin (0.2 μg) for 60 minutes at 30° C. Enzymatic digestions were stopped with 1 mM PMSF. After both digestion and labeling, samples were resolved by SDS-PAGE under conditions that allowed separation of α- and β-tubulin subunits. Gels were then fixed and stained with Coomassie blue from BioRad (Hercules, Calif.) and subjected to fluorography.

bovine brain tubulin [1] = target: T2, bovine brain tubulin (Bos taurus, UniProt P81947+Q6B856); test: Radiolabeled Probe 1 binding by centrifugal gel filtration; conditions: 0.5 μM tubulin, 0.005-5 μM radiolabeled Probe 1, room temperature; read-out: apparent KD, radiolabeled probe technique
T2 construct: MAP-rich bovine brain tubulin (99% purity), Hela cell tubulin (90% purity); purchased Cytoskeleton (Denver, Colo.); host or cells: bovine brain
Method: Binding of Probe 1 to bovine brain tubulin was also assessed by incubating 0.5 μM tubulin with 0.005-5 μM radiolabeled Probe 1 both in the presence and in the absence of 5 μM non-radiolabeled probe 1 as a competitor. Incubations were performed for 30 minutes at room temperature in PEM buffer. Binding was measured using centrifugal gel filtration on Sephadex G-50 (Microspin G-50) as described (Bai et al., Cancer Res. 1996, 56:4398-4406). Spin columns (Amersham Biosciences, Piscataway, N.J.) were centrifugated for 1 minute at 2000 rpm in a microcentrifuge immediately prior to use, and samples applied in 50 μL total volume, followed by a 2 minute centrifugation at the same speed. The amount of probe 1 bound to tubulin was quantitated by measuring the radioactivity within aliquots collected after centrifugation. The KD value, representing 50% of specific binding, was calculated from the curve generated by subtracting the amount of […].

bovine brain tubulin [2] = target: T2, bovine brain tubulin; test: Reversible binding affinity assay (tubulin fluorescence)
Method: The affinity of both HTI-286 and of non-radiolabled Probe 1 and Probe 2, to bovine brain tubulin was determined by previously published methods (Krishnamurthy et al., Biochem., submitted). Briefly, 5 mg/mL […] tubulin prepared in PEM buffer was pre-incubated with buffer or varying concentrations of test agents in individual quartz cuvettes. The intrinsic tryptophan fluorescence of tubulin (excitation at 560 nm and maximal emission at 580 nm) was measured after pre-incubation for 90 minutes. The change in fluorescence intensity at 580 nm in the presence of compound was fitted to a quadratic equation to obtain apparent dissociation constants (KD) of the test agents.

[3] = target: T3, tubulin in KB-3-1 cell lysates (Homo sapiens, UniProt P07437+P68363); test: Probe 1 photolabeling in KB-3-1 cell lysates; assay type: binding; conditions: 250 μM non-radiolabeled, 2.5 μM [3H]-probe 1, KB-3-1 cell lysates (50 μg)
T3 construct: a cytosolic preparation of KB-3-1 cell lysates (50 μg) or KB-3-1 cells (40,000 cells) were used in the place of purified tubulin; endogenous in cells; host or cells: KB-3-1 cells (cytosolic supernatant at 100,000 x g, or whole cells)
Method: FIG. 1B illustrates the labeling of KB-3-1 cell lysates (50 μg) (lanes 1 and 2) and purified bovine brain (BB) tubulin (5 μg) (lanes 3 and 4) incubated for 30 minutes at room temperature with 2.5 μM [^3H]-probe 1. Samples in lanes 1 and 3 were pre-incubated with 250 μM non-radiolabeled probe 1 prior to incubation with radiolabeled materials. Samples were analyzed as described in FIG. 1A. Lanes marked “M” are molecular weight markers in kDa.
Alternatively, a cytosolic preparation of KB-3-1 cell lysates (50 μg) or KB-3-1 cells (40,000 cells) were used in the place of purified tubulin above. The supernatant of mechanically disrupted cells centrifuged at 100,000×g was used as a cytosolic preparation. K-3-1 cells were prepared by growing KB-3-1 cells in a 96-well plate and rinsing them with serum free medium. For experiments with whole cells, 250 μM HTI-286 was used as the competitor molecule during pre-incubation at 37° C. for 15 minutes.

KB cells = test: Cell proliferation assay in tissue culture (SRB); assay type: cell-based; conditions: Homo sapiens, KB, 72 h
Method: Cell proliferation studies were performed according to procedures described by Loganzo et al. (Cancer Res. 2003, 63:1838-1845). Briefly, KB cells were plated in 96-well plates in 100 μL media at densities pre-determined to produce 60-90% confluence at the time of analysis. Compounds, which were serially diluted into media as 2× stocks, were added to cells in duplicate. After 72 hours of incubation, cell survival was assayed by the SRB assay as described (Rabindran et al., C. Cancer Res. 1998, 58:5850-5858). IC50 values (i.e. the concentration of drug needed to inhibit cell growth by 50%) were used to evaluate drug potency.

T2 sequence (P81947 whole entry): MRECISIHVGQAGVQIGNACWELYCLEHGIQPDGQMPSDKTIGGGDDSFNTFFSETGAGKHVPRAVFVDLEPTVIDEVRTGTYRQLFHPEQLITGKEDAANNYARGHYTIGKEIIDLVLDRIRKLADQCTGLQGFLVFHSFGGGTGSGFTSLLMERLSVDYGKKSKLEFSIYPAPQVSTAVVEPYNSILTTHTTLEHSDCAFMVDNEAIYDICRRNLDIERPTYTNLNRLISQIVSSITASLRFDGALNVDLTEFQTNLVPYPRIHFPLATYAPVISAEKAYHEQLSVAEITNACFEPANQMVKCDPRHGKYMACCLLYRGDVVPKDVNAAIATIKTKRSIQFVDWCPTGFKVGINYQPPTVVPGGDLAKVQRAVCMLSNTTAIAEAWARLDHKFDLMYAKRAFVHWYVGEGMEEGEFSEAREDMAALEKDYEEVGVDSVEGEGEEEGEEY
T2 sequence (Q6B856 whole entry): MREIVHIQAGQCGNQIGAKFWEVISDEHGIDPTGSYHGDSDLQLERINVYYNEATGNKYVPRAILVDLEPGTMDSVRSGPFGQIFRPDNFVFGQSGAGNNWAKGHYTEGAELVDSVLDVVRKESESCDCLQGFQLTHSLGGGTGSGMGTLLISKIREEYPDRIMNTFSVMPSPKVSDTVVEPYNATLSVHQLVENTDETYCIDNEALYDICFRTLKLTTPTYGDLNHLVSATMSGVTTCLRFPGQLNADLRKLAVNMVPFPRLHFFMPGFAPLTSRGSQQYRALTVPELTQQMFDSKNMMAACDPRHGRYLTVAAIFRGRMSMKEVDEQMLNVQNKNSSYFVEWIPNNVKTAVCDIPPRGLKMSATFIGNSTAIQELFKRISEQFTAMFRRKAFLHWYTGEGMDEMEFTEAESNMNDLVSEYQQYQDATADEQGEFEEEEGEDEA
T1 sequence (P81947 whole entry): as the sequence (P81947 whole entry) above
T1 sequence (Q6B856 whole entry partner): as the sequence (Q6B856 whole entry) above
T3 sequence (P68363 whole entry): as the sequence (P81947 whole entry) above
T3 sequence (P07437 whole entry): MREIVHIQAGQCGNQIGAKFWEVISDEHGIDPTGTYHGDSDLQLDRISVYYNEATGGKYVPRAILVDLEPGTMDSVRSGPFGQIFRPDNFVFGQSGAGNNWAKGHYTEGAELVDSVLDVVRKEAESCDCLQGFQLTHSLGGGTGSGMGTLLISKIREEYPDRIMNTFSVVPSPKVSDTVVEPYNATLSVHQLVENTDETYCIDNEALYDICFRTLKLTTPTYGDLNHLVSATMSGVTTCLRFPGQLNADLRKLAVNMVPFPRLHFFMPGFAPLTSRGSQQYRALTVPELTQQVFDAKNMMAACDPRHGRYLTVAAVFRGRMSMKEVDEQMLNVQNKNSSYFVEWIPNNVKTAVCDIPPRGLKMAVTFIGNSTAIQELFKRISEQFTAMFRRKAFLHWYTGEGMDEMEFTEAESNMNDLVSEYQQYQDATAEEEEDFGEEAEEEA

With `CN[C@H](C(=O)N[C@H](C(=O)N(C)[C@H](/C=C(\C)C(=O)O)C(C)C)C(C)(C)C)C(C)(C)c1ccc(C(=O)c2ccccc2)cc1` [Probe 1, 4-benzoyl-N,β,β-trimethyl-L-phenylalanyl-N^1-[(1S,2E)-3-carboxy-1-isopropylbut-2-enyl]-N^1,3-dimethyl-L-valinamide] as the compound, how does the “effect on subtilisin digestion of α-tubulin” value (α-tubulin; 0.25 μM radiolabeled) read?
The value was “partially inhibits the digestion of α-tubulin”.

And the “effect on subtilisin digestion of α-tubulin” value (α-tubulin; 100 or 250 μM non-radiolabeled, β-tubulin is completely digested)?
Its value is “completely blocks”.

What about the pKd (bovine brain tubulin [1]) of the same compound?
Its pKd is 6.46.

What about the pKd (bovine brain tubulin [2]; Table 1, binding to bovine brain tubulin, read-out: KD) of the same compound?
The pKd was 6.10 to 6.70.

And the pKd (bovine brain tubulin [2]; rhodamine-labeled tubulin, 90 minutes pre-incubation, read-out: apparent binding constant (KD), fluorescence method)?
The pKd was 6.30.

What about the “inhibition of radiolabeled Probe 1 binding in cell lysates” value [3] of the same compound?
The value was “can inhibit the binding of radiolabled Probe 1”.

And the pIC50 (KB cells)?
Its pIC50 is 8.74.
